Experimental data: article PMC6162346, “The MALDI-TOF E2/E3 Ligase Assay as Universal Tool for Drug Discovery in the Ubiquitin Pathway” (Cell Chemical Biology, 2018)
“And” between values parts separate entries of the source, which are not always exact repeats. Equal entries are not always repeated. “Also recorded” adds a separate entry of the source. Where two headings read alike, the source gives them in different places.

How the values were obtained:
[1] = target: T1, HOIP (Homo sapiens, UniProt Q96EP0); experiment: MALDI-TOF E2/E3 ligase assay (mono-ubiquitin consumption), UBE1/UBE2L3/HOIP; type: biochemical; details: for remaining activity at 10 µM: read-out: Residual Activity (%), UBE1/UBE2L3/HOIP
T1 construct: HOIP (697-1072) DU22629; GST (cleaved yes); host or cells: E. coli BL21
T1 sequence (Q96EP0 697-1072): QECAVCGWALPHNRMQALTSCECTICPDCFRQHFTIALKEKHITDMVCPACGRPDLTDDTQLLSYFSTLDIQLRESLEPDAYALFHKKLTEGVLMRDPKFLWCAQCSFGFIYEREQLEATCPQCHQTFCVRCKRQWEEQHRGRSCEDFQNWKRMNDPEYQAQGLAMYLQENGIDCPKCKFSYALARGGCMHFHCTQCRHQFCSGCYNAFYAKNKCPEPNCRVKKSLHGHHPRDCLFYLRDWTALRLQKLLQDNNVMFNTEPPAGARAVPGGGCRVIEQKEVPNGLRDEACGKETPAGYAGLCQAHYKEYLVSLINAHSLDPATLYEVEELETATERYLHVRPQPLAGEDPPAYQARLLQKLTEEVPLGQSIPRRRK

[2] = target: MDM2 (Homo sapiens, UniProt Q00987); experiment: MALDI-TOF E2/E3 ligase assay (mono-ubiquitin consumption), UBE1/UBE2D1/MDM2; type: biochemical; details: for Inhibition effect on MDM2 with β-mercaptoethanol (BME) present: initial presence of BME in the MDM2 preparation; for remaining activity at 10 µM: read-out: Residual Activity (%), UBE1/UBE2D1/MDM2
MDM2, sequence (Q00987 whole entry): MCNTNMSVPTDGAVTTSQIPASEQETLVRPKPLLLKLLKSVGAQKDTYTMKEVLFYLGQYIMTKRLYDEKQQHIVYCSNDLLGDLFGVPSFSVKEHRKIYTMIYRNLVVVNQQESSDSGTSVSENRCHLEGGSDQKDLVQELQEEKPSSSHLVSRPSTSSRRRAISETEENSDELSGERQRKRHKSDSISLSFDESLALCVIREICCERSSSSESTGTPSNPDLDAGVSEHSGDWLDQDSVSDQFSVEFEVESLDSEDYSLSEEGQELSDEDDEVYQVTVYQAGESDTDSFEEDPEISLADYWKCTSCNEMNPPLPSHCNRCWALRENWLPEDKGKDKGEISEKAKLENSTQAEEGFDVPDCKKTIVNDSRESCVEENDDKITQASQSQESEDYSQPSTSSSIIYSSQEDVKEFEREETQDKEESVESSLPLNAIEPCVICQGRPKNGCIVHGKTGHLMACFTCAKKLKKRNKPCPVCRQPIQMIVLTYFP

[3] = target: T2, ITCH (Homo sapiens, UniProt Q96J02); experiment: MALDI-TOF E2/E3 ligase assay (mono-ubiquitin consumption), UBE1/UBE2D1/ITCH; type: biochemical; details: for remaining activity at 10 µM: read-out: Residual Activity (%), UBE1/UBE2D1/ITCH
T2 construct: ITCH Q96J02 - GST full length; host or cells: E. coli BL21
T2 sequence (Q96J02 whole entry): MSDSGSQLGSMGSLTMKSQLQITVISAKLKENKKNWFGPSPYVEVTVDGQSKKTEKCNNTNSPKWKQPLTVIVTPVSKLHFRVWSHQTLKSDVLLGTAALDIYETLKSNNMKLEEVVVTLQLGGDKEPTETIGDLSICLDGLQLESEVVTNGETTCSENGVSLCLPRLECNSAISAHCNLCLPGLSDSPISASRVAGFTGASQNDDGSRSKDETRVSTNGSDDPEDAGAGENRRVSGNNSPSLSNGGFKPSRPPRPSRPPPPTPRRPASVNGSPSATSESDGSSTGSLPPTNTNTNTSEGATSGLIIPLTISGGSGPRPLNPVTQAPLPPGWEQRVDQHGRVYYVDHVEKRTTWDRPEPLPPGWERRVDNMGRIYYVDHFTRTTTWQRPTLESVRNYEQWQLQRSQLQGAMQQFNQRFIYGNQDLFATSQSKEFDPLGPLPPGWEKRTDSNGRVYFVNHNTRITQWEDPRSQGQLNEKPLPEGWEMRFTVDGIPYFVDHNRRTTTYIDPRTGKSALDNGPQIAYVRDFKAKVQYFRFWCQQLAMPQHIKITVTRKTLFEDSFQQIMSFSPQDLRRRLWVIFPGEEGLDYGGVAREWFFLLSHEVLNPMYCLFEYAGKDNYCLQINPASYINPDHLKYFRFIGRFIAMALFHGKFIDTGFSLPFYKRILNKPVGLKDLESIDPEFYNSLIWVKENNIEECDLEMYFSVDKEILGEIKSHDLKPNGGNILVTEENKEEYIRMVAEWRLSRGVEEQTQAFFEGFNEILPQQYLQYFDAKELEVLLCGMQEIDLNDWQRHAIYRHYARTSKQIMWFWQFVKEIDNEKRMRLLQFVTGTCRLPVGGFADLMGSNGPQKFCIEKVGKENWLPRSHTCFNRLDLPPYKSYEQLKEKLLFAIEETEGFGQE

[4] = target: T1, HOIP; type: biochemical
[5] = target: T3, UBE2L3 (Homo sapiens, UniProt P68036); experiment: MALDI-TOF MS of intact E2 protein incubated with inhibitor (covalent modification); type: binding; details: UBE2L3 3 µM, inhibitor 100 µM, 30 min, room temperature
T3 construct: UBE2L3 P68036 UbcH7 - full length; 6His (cleaved yes); host or cells: E. coli BL21 DE3 codon plus
T3 sequence (P68036 whole entry): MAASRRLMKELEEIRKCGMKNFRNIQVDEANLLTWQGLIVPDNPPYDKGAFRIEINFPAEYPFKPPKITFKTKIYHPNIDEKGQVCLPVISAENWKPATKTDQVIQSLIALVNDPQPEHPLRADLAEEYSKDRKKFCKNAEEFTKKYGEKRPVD

[6] = test system: ITCH; design: method as in Rossi et al., 2014; details: irreversible block; ref Rossi et al., 2014; cited from earlier work
[7] = HTS single point, 10 μM compound
[8] = UBE1/UBE2D1/MDM2, compounds pre-incubated 30 min, then ubiquitin 30 or 40 min, four-parameter fit, read-out: IC50 against MDM2
[9] = UBE1/UBE2D1/ITCH, compounds pre-incubated 30 min, then ubiquitin 30 or 40 min, four-parameter fit, read-out: IC50 against ITCH
[10] = UBE1/UBE2L3/HOIP, compounds pre-incubated 30 min, then ubiquitin 30 or 40 min, four-parameter fit, read-out: IC50 against HOIP

## O=C(NCCN1CCOCC1)c1ccc(Cl)cc1 [moclobemide]
[1]; [7]
  remaining activity at 10 µM: 25.9%

## Cn1c(CCCC(=O)O)nc2cc(N(CCCl)CCCl)ccc21 [bendamustine]
[2]
  IC50: 114 µM
  Inhibition of MDM2 at 10 μM (in words): did not significantly affect
[3]
  IC50: 76.8 µM
  Inhibition of ITCH at 10 μM (in words): did not significantly affect
[1]; IC50 against HOIP, UBE1/UBE2L3/HOIP, compounds pre-incubated 30 min, then ubiquitin 30 or 40 min, four-parameter fit
  IC50: 6.4 µM and 6.3 µM
[1]; from IC50 values
  Fold higher activity against HOIP than against ITCH: 12 fold
  Fold higher activity against HOIP than against MDM2: 18 fold
[1]
  remaining activity at 10 µM: 6.3%
[4]
  Inhibition of HOIP when paired with UBE2D1 (in words): inhibits HOIP independently from the E2 in use; also recorded: retained its inhibition power

## Cc1ccc(S(=O)(=O)/C=C/C#N)cc1 [BAY117082]
[2]; Table S4
  Hill Slope Values for calculated IC50s, MDM2: 3.5
[2]; [8]
  IC50: 2.4 µM
[2]
  Inhibition effect on MDM2 with β-mercaptoethanol (BME) present: suppressed
[3]; Table S4
  Hill Slope Values for calculated IC50s, ITCH: 1.23
[3]; [9]
  IC50: 25.9 µM
[1]; Table S4
  Hill Slope Values for calculated IC50s, HOIP: 2.48
[1]; [10]
  IC50: 2.9 µM
[5]
  Covalent modification of E2 enzyme UBE2L3 (in words): covalently modified E2 enzymes
  Mass shift of UBE2L3 after incubation with inhibitor: 153 Da

## NC(=O)c1cnccn1 [pyrazinamide]
[1]; [7]
  remaining activity at 10 µM: 49.3%

## C[C@H]1[C@H](NC(=O)/C(=N\OC(C)(C)C(=O)O)c2csc(N)n2)C(=O)N1S(=O)(=O)O [aztreonam]
[2]; [7]
  remaining activity at 10 µM: 56.7%

## CCOc1nc2cccc(C(=O)OC(C)OC(=O)OC3CCCCC3)c2n1Cc1ccc(-c2ccccc2-c2nnn[nH]2)cc1 (centres unmarked) [candesartan cilexetil]
[2]; [7]
  inhibition at 10 µM: > 50%
  remaining activity at 10 µM: 48.6%
[2]; [8]
  IC50: 8.8 µM

## O=c1c2ccccc2[se]n1-c1ccccc1 [ebselen]
[1]; [7]
  remaining activity at 10 µM: 36.2%

## Cc1[nH]cnc1CN1CCc2c(c3ccccc3n2C)C1=O [alosetron]
[3]; [7]
  remaining activity at 10 µM: 58.2%

## CCOC(=O)c1ccc(N2NC(=O)/C(=C/c3ccc([N+](=O)[O-])o3)C2=O)cc1 [PYR41]
[2]; Table S4
  Hill Slope Values for calculated IC50s, MDM2: 2.23
[2]; [8]
  IC50: 3.1 µM
[2]
  Inhibition effect on MDM2 with β-mercaptoethanol (BME) present: suppressed
[3]; Table S4
  Hill Slope Values for calculated IC50s, ITCH: 1.22
[3]; [9]
  IC50: 11.3 µM
[1]; Table S4
  Hill Slope Values for calculated IC50s, HOIP: 3.73
[1]; [10]
  IC50: 5.7 µM

## N[C@@H](C(=O)N[C@@H]1C(=O)N2C(C(=O)O)=C(CSc3c[nH]nn3)CS[C@H]12)c1ccc(O)cc1 [cefatrizine]
[1]; [7]
  remaining activity at 10 µM: 49%

## COc1ccc(CCN)cc1OC [2-(3,4-dimethoxyphenyl) ethanamine]
[1]
  remaining activity at 10 µM: 68.2%

## CN1C(=O)[C@]23CC4=CC=C[C@H](O)[C@H]4N2C(=O)[C@@]1(CO)SS3 [Gliotoxin]
[2]
  Hill Slope Values for calculated IC50s, MDM2: 2.18
  IC50: 0.5 µM
[3]
  Hill Slope Values for calculated IC50s, ITCH: 5.12
  IC50: 30.5 µM
[1]
  Hill Slope Values for calculated IC50s, HOIP: 2.01
  IC50: 2.8 µM

## Cc1ccnc2c1NC(=O)c1cccnc1N2C1CC1 [nevirapine]
[1]; [7]
  remaining activity at 10 µM: 54.8%

## N#CSc1cc(SC#N)c(N)nc1N [PR619]
[2]; Table S4
  Hill Slope Values for calculated IC50s, MDM2: 1.89
[2]; [8]
  IC50: 0.6 µM
[3]; Table S4
  Hill Slope Values for calculated IC50s, ITCH: 3.14
[3]; [9]
  IC50: 0.4 µM
[1]; Table S4
  Hill Slope Values for calculated IC50s, HOIP: 7.8
[1]; [10]
  IC50: 0.2 µM
[5]
  Covalent modification of E2 enzyme UBE2L3 (in words): extensively modified UBE2L3; also recorded: covalently modified E2 enzymes

## Oc1ccc(/C=C/c2cc(O)cc(O)c2)cc1 [resveratrol]
[1]; [7]
  remaining activity at 10 µM: 62.2%

## OC(Cn1cncn1)(Cn1cncn1)c1ccc(F)cc1F [fluconazole]
[1]; [7]
  remaining activity at 10 µM: 46.4%

## CCCCN1CCCCC1C(=O)Nc1c(C)cccc1C (centres unmarked) [bupivacaine]
[1]; [7]
  remaining activity at 10 µM: 66.2%

## CN(C)CCCN1c2ccccc2CCc2ccc(Cl)cc21 [Clomipramine]
[2]
  Inhibition of MDM2 at 10 μM (in words): did not inhibit
[3]
  Inhibition of ITCH at 10 μM (in words): did not inhibit
[3]; dose-response curve, final concentrations between 2mM and 7 µM, read-out: IC50 against ITCH
  IC50: 503 µM and ~500 µM
[1]; 10 μM
  Inhibition of HOIP at 10 μM (in words): did not inhibit
[6]
  Concentration achieving complete inhibition of ITCH ubiquitin transthiolation: 0.8 mM

## COc1ccc(C2=N[C@@H](c3ccc(Cl)cc3)[C@@H](c3ccc(Cl)cc3)N2C(=O)N2CCNC(=O)C2)c(OC(C)C)c1 [Nutlin3A, nutlin-3A]
[3]; 0–100 μM
  Inhibitory activity toward ITCH in IC50 curves (in words): did not show any inhibitory activity
[3]; UBE1/UBE2D1/ITCH, compounds pre-incubated 30 min, then ubiquitin 30 or 40 min, four-parameter fit
  IC50 against ITCH: ambiguous
[1]; 0–100 μM
  Inhibitory activity toward HOIP in IC50 curves (in words): did not show any inhibitory activity
[1]; UBE1/UBE2L3/HOIP, compounds pre-incubated 30 min, then ubiquitin 30 or 40 min, four-parameter fit
  IC50 against HOIP: ambiguous

## Oc1c(Cl)cc(Cl)c(Cl)c1Cc1c(O)c(Cl)cc(Cl)c1Cl [hexachlorophene]
[2]
  remaining activity at 10 µM: 52.4%
[3]
  remaining activity at 10 µM: 22.2%

## C=C(CC)C(=O)c1ccc(OCC(=O)O)c(Cl)c1Cl [ethacrynic acid]
[2]; [7]
  remaining activity at 10 µM: 53.9%
[3]; [7]
  remaining activity at 10 µM: 29.5%
